Measurements: ChEMBL document CHEMBL4138083, “Design, synthesis and primary biological evaluation of the novel 2-pyridone derivatives as potent non-nucleoside HBV inhibitors” (Eur J Med Chem, 2017)

Tests used:
Hepatitis B virus [1] = assay: Antiviral activity against Hepatitis B virus assessed as inhibition of HBsAg secretion; type: functional, organism-based
Hepatitis B virus [2] = assay: Antiviral activity against Hepatitis B virus infected in human HepG2.2.15 cells assessed as inhibition of viral DNA replication at 20 uM after 8 days by real time fluorescent PCR method relative to control; type: functional; settings: HepG2.2.15, 192 h
[3] = Cytotoxicity against human HepG2.2.15 cells assessed as reduction in cell viability after 8 days by CCK-8 assay; type: cell-based, HepG2 2.2.15
Hepatitis B virus [4] = assay: Antiviral activity against Hepatitis B virus infected in human HepG2.2.15 cells assessed as inhibition of HBsAg secretion after 8 days by ELISA; type: functional, organism-based; settings: HepG2.2.15, 192 h
Hepatitis B virus [5] = assay: Antiviral activity against Hepatitis B virus infected in human HepG2.2.15 cells assessed as inhibition of HBeAg secretion after 8 days by ELISA; type: functional, organism-based; settings: HepG2.2.15, 192 h
[6] = Selectivity index, ratio of CC50 for human HepG2.2.15 cells to IC50 for Hepatitis B virus infected in human HepG2.2.15 cells assessed as inhibition of HBsAg secretion; type: toxicity, cell-based; settings: read-out: Ratio CC50/IC50
[7] = Selectivity index, ratio of CC50 for human HepG2.2.15 cells to IC50 for Hepatitis B virus infected in human HepG2.2.15 cells assessed as inhibition of HBeAg secretion; type: toxicity, cell-based; settings: read-out: Ratio CC50/IC50
Hepatitis B virus [8] = assay: Antiviral activity against Hepatitis B virus infected in human HepG2.2.15 cells assessed as inhibition of viral DNA replication at 4 uM after 8 days by real time fluorescent PCR method relative to control; type: functional; settings: HepG2.2.15, 192 h
Hepatitis B virus [9] = assay: Antiviral activity against Hepatitis B virus infected in human HepG2.2.15 cells assessed as inhibition of viral DNA replication at 0.8 uM after 8 days by real time fluorescent PCR method relative to control; type: functional; settings: HepG2.2.15, 192 h
Hepatitis B virus [10] = assay: Antiviral activity against Hepatitis B virus infected in human HepG2.2.15 cells assessed as inhibition of viral DNA replication at 0.16 uM after 8 days by real time fluorescent PCR method relative to control; type: functional; settings: HepG2.2.15, 192 h
Hepatitis B virus [11] = assay: Antiviral activity against Hepatitis B virus infected in human HepG2.2.15 cells assessed as inhibition of viral DNA replication after 8 days by real time fluorescent PCR method; type: functional, organism-based; settings: HepG2.2.15, 192 h

Row | SMILES | IC50 (Hepatitis B virus [1]) | IC50 (Hepatitis B virus [4]) | IC50 (Hepatitis B virus [5]) | IC50 (Hepatitis B virus [11]) | inhibition at 20 µM (Hepatitis B virus [2]) | CC50 at 192 h [3] | selectivity ratio [6] | selectivity ratio [7] | inhibition at 4 µM (Hepatitis B virus [8]) | inhibition at 0.8 µM (Hepatitis B virus [9]) | inhibition at 0.16 µM (Hepatitis B virus [10])
1 | COc1c(O)cc2occ(-c3ccc(O)cc3)c(=O)c2c1O [TECTORIGENIN] | 53.9 µM | – | – | – | – | – | – | – | – | – | –
2 | CCOc1ccc(-c2cc(NC(=O)c3ccc(C)cc3O)c[nH]c2=O)cc1 | – | 62 µM | 91.9 µM | – | 36.4% | > 100 µM | > 1.61 | > 1.09 | – | – | –
3 | CCOc1ccc(-c2cc(NC(=O)c3ccc(Cl)cc3O)c[nH]c2=O)cc1 | – | 23.2 µM | 22.8 µM | – | 21.9% | 28.6 µM | 1.23 | 1.25 | – | – | –
4 | Cc1cccc(-c2cc(NC(=O)c3ccc(Cl)cc3O)c[nH]c2=O)c1 | – | 39 µM | 22.4 µM | – | 26.5% | 33.1 µM | 0.85 | 1.48 | – | – | –
5 | CCOc1ccc(-c2cc(NC(=O)c3cc(OC)ccc3O)c[nH]c2=O)cc1 | – | 49.1 µM | 51.2 µM | – | 46% | 57.7 µM | 1.17 | 1.13 | – | – | –
6 | Cc1cccc(-c2cc(NC(=O)c3ccc(C)cc3O)c[nH]c2=O)c1 | – | > 100 µM | 39.2 µM | – | – | 75 µM | < 0.75 | 1.91 | – | – | –
7 | CCOc1ccc(-c2cc(NC(=O)c3cccc(OC)c3O)c[nH]c2=O)cc1 | – | 30.5 µM | 41.3 µM | – | 24.9% | 34.5 µM | 1.13 | 0.83 | – | – | –
8 | COc1ccc(-c2cc(NC(=O)c3ccccc3O)c[nH]c2=O)cc1 | – | > 100 µM | 46.4 µM | – | 37.9% | > 100 µM | – | > 2.16 | – | – | –
9 | CCOc1ccc(-c2cc(NC(=O)c3ccc(C(F)(F)F)cc3O)c[nH]c2=O)cc1 | – | 23.7 µM | 24.1 µM | 3.4 µM | 76.8% | 22.2 µM | 0.94 | 0.92 | 47.3% | 39.5% | 4.7%
10 | CCOc1ccc(-n2cc(C(=O)c3ccc(OC)cc3O)ccc2=O)cc1 | – | > 100 µM | 51.5 µM | – | 53.3% | > 100 µM | – | > 1.94 | – | – | –
11 | COc1cccc(C(=O)Nc2c[nH]c(=O)c(-c3cccc(C)c3)c2)c1O | – | 94.7 µM | > 100 µM | – | – | > 100 µM | > 1.06 | – | – | – | –
12 | CCOc1ccc(-c2cc(NC(=O)c3ccccc3O)c[nH]c2=O)cc1 | – | 15.2 µM | 24.6 µM | – | 37.8% | 41 µM | 2.69 | 1.66 | – | – | –
13 | Cc1cccc(-c2cc(NC(=O)c3ccc(C(F)(F)F)cc3O)c[nH]c2=O)c1 | – | 26.4 µM | 26.8 µM | – | 23.2% | 24.2 µM | 0.92 | 0.9 | – | – | –
14 | Cc1cccc(-c2cc(NC(=O)c3ccccc3O)c[nH]c2=O)c1 | – | > 100 µM | 58.4 µM | – | 25.5% | 98.8 µM | < 0.99 | 1.69 | – | – | –
15 | Nc1ccn([C@@H]2CS[C@H](CO)O2)c(=O)n1 [LAMIVUDINE] | – | > 100 µM | > 100 µM | 0.5 µM | 81.9% | > 100 µM | – | – | 80.8% | 56.2% | 37%
16 | Cc1cc(C)cc(-c2cc(NC(=O)c3ccccc3O)c[nH]c2=O)c1 | – | 25.3 µM | 25.3 µM | – | 21.5% | 25.1 µM | 0.99 | 0.99 | – | – | –

Continued, in another order:

Row | IC50 (Hepatitis B virus [1]) | IC50 (Hepatitis B virus [4]) | IC50 (Hepatitis B virus [5]) | IC50 (Hepatitis B virus [11]) | SMILES | inhibition at 20 µM (Hepatitis B virus [2]) | CC50 at 192 h [3] | selectivity ratio [6] | selectivity ratio [7] | inhibition at 4 µM (Hepatitis B virus [8]) | inhibition at 0.8 µM (Hepatitis B virus [9]) | inhibition at 0.16 µM (Hepatitis B virus [10])
17 | – | 26 µM | 17.5 µM | – | COc1ccc(-c2cc(NC(=O)c3ccc(OC)cc3O)c[nH]c2=O)cc1 | 59.3% | 49.9 µM | 1.92 | 2.86 | – | – | –
18 | – | 52.2 µM | 31.6 µM | – | COc1ccc(C(=O)Nc2c[nH]c(=O)c(-c3ccc(OC)c(F)c3)c2)c(O)c1 | – | 50.5 µM | 0.97 | 1.6 | – | – | –
19 | – | 20.8 µM | 16.9 µM | – | COc1ccc(O)c(C(=O)Nc2c[nH]c(=O)c(-c3cccc(C)c3)c2)c1 | 40.3% | 30.1 µM | 1.44 | 1.78 | – | – | –
20 | – | 89.9 µM | 23.6 µM | – | COc1ccc(-c2cc(NC(=O)c3ccc(C)cc3O)c[nH]c2=O)cc1 | 58.1% | 46.1 µM | 0.51 | 1.96 | – | – | –
21 | – | 28.4 µM | 60.6 µM | – | CCOc1ccc(-c2cc(NC(=O)c3ccc(F)cc3O)c[nH]c2=O)cc1 | – | 51.5 µM | 1.81 | 0.85 | – | – | –
22 | – | > 100 µM | 44.6 µM | – | COc1ccc(C(=O)Nc2c[nH]c(=O)c(-c3cccc(C)c3)c2)c(O)c1 | 60.9% | > 100 µM | – | > 2.24 | – | – | –
23 | – | 44.1 µM | 41.4 µM | – | CCOc1ccc(-c2cc(NC(=O)c3ccc(OC)cc3O)c[nH]c2=O)cc1 | 4.2% | 69.6 µM | 1.58 | 1.68 | – | – | –
24 | – | 79.4 µM | 76.9 µM | – | COc1ccc(-c2cc(NC(=O)c3ccc(Cl)cc3O)c[nH]c2=O)cc1 | 22.9% | 50.5 µM | 0.64 | 0.66 | – | – | –
25 | – | 26.4 µM | 24.2 µM | – | COc1ccc(C(=O)Nc2c[nH]c(=O)c(-c3ccc4c(c3)OCO4)c2)c(O)c1 | 51.9% | 25.2 µM | 0.95 | 1.04 | – | – | –
26 | – | 51.5 µM | 25.8 µM | – | COc1ccc(C(=O)Nc2c[nH]c(=O)c(-c3cc(C)ccc3C)c2)c(O)c1 | < 0% | 50.4 µM | 0.98 | 1.95 | – | – | –
27 | – | 32.4 µM | 33.2 µM | – | COc1ccc(C(=O)Nc2c[nH]c(=O)c(-c3ccc(C)c(C)c3)c2)c(O)c1 | < 0% | 31.3 µM | 0.97 | 0.94 | – | – | –
28 | – | 65.8 µM | 32.3 µM | – | Cc1cccc(-c2cc(NC(=O)c3ccc(F)cc3O)c[nH]c2=O)c1 | 37.6% | 37.2 µM | 0.57 | 1.15 | – | – | –
29 | – | 34.5 µM | 32.8 µM | – | COc1ccc(-c2cc(NC(=O)c3cccc(OC)c3O)c[nH]c2=O)cc1 | 25.3% | 49.2 µM | 1.43 | 1.5 | – | – | –
